# Measurements reported in PMC5527305, “Prevention of Ophthalmia Neonatorum Caused by Neisseria gonorrhoeae Using a Fatty Acid-Based Formulation” (mBio, 2017).
# Experiments:
# C. trachomatis = tested on: C. trachomatis; parameters: method as in PMID 9736551; conditions: cited from earlier work
# [1] = tested on: N. gonorrhoeae strain NCCP11945 in coculture with human corneal epithelial cells; assay: Cell culture infection model, log reduction of N. gonorrhoeae on corneal epithelial cells; assay type: cell-based, Neisseria gonorrhoeae; conditions: for Killing of N. gonorrhoeae in coculture with corneal cells: 1 mM, added at time of infection or 90 min later, 3 h
# Protocol: Because of its potency, resistance to precipitation in the presence of calcium, and nonirritant nature, monocaprin was chosen from the seven candidates to test in a cell culture model with a 2-fold dilution series from 1 mM to 0.125 mM. Bacteria were also challenged with this compound at two different time points, i.e., at the time of the inoculation and 90 min later. […] There was a slight difference in the level of efficacy when monocaprin was used at sub-MBC levels and added 90 min after bacterial inoculation in comparison to addition immediately after inoculation of the bacteria (Fig. 6). This was possibly due to monocaprin hindering attachment of the bacterial cells to the corneal cells when it was added at the time of infection.
# Primary cornea epithelial cells (Life Technologies, Inc.) were grown in keratinocyte serum-free medium (Life Technologies, Inc.) at 37°C with 5% CO2 until 80% confluence was reached. Cells were treated with trypsin, washed, added to 24-well plates, and incubated for a further 24 h. The medium was replaced and approximately 10^7 CFU/ml P^+ and Opa^+ N. gonorrhoeae strain NCCP11945 added to reach a host-to-pathogen ratio (multiplicity of infection) of 1:10. Monocaprin (1 mM, 0.5 mM, 0.25 mM, or 0.125 mM) was added either at 0 min or at 90 min after seeding with N. gonorrhoeae. Controls included noninfected, noninfected treated (with 1 mM monocaprin), infection, and gentamicin controls. After 3 h, the cells were washed, treated with 1% saponin, and incubated for 10 min at 37°C. GC broth was added to each well, and log reductions were calculated as detailed above. Comparisons of the log reductions at different drug administration times at given concentrations were performed using an unpaired t test and GraphPad Prism (version 6.01).
structure (smiles),measurement,setting,value
CCCCCCCCCC(=O)OCC(O)CO (centres unmarked) [Monocaprin],Activity against C. trachomatis,C. trachomatis,bactericidal
same,Efficacy (log reduction) in cell culture model,"[1]; 0.125 mM, both time points",completely ineffective
same,Killing of N. gonorrhoeae in coculture with corneal cells,[1],killed all N. gonorrhoeae bacteria
same,Killing of N. gonorrhoeae in coculture with corneal cells,[1]; listed as monocaprin,complete killing
same,"Bacterial log reduction, comparison of addition times","[1]; 0.25 and 0.5 mM, 0 min vs 90 min",more effective at 0 min
